Data reported in patent publication US9765060B2 (Gilead Sciences, Inc., priority 2014, dated 2017).

Each compound was assayed against PI3K isoform δ (Homo sapiens (Human), UniProt O00329) (assay: TR-FRET assay of enzymatic activity of class I PI3K isoforms). Settings: read-out: IC50 (nM) for PI3K isoform δ (Table 2); TR-FRET; 2× Km ATP, 2 μM PIP2; incubated for 30 minutes at 25° C.
Chain of PI3K isoform δ (O00329 whole entry, canonical isoform): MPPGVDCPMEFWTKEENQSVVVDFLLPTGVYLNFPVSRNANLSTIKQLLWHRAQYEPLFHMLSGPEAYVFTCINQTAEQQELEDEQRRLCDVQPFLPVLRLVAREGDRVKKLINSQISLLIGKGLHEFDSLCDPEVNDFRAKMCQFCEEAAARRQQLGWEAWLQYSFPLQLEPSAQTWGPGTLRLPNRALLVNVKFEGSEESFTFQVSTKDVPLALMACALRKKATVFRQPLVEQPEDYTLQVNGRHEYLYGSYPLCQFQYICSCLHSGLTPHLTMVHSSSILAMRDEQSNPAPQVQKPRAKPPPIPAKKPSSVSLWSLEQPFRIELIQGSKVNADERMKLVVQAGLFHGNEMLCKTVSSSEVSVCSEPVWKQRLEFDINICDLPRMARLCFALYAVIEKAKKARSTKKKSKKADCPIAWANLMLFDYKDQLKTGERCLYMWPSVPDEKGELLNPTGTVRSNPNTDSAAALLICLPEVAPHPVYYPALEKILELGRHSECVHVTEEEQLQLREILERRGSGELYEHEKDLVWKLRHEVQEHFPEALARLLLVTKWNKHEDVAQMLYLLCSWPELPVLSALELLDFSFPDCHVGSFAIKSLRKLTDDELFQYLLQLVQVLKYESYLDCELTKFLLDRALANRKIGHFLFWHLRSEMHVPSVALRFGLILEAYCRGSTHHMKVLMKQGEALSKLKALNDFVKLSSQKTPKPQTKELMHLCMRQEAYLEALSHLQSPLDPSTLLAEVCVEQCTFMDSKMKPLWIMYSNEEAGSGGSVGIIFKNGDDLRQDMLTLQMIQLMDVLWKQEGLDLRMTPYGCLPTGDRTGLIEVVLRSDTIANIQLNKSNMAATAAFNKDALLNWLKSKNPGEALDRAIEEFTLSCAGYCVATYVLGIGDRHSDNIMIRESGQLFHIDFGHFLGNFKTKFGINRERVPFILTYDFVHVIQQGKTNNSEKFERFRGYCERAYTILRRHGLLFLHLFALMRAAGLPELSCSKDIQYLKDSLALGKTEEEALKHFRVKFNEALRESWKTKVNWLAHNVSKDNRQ
Chain of PI3K isoform δ (P27986 whole entry partner, canonical isoform): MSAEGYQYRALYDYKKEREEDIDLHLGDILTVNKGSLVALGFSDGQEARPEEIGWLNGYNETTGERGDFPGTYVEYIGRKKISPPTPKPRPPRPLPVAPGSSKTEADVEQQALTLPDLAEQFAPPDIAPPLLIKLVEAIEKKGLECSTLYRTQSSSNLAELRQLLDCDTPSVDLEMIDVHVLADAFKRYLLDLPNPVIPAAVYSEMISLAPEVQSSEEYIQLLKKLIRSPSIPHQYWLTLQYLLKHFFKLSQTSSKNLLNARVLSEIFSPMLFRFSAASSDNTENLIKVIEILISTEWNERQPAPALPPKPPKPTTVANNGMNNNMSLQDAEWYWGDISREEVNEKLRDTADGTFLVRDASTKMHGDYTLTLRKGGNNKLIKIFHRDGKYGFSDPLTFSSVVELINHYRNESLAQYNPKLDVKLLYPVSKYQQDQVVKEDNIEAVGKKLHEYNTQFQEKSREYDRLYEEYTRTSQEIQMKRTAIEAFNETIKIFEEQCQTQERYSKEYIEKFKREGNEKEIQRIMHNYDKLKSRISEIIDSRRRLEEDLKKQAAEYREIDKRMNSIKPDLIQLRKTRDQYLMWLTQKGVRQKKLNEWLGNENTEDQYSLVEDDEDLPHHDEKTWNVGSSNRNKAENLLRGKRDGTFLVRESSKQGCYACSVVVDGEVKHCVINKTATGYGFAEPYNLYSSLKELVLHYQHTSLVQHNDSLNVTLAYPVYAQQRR
Source text: TR-FRET monitored the formation of 3,4,5-inositol triphosphate molecule that competed with fluorescently labeled PIP3 for binding to the GRP-1 pleckstrin homology domain protein. […] Class I PI3K isoforms were expressed and purified as heterodimeric recombinant proteins. All assay reagents and buffers for the TR-FRET assay were purchased from Millipore.

| Compound | IC50 [nM] |
| --- | --- |
| C[C@H](Nc1ncnc(N)c1C#N)c1nc2cccc(Cl)c2c(=O)n1-c1ccccc1 [Compound Y, (S)-4-amino-6-((1-(5-chloro-4-oxo-3-phenyl-3,4-dihydroquinazolin-2-yl)ethyl)amino)pyrimidine-5-carbonitrile, reference compound] | 0.4 |

Same assay, conditions: read-out: IC50 (nM) for PI3K isoform δ (Table 3); TR-FRET; 2× Km ATP, 2 μM PIP2; incubated for 30 minutes at 25° C.

| Compound | IC50 [nM] |
| --- | --- |
| C[C@H](Nc1nc(Cl)nc(N)c1C#N)c1nc2cccc(Cl)c2c(=O)n1-c1ccccc1 [Compound 104, (S)-4-amino-2-chloro-6-((1-(5-chloro-4-oxo-3-phenyl-3,4-dihydroquinazolin-2-yl)ethyl)amino)pyrimidine-5-carbonitrile] | 4 |
| C[C@H](Nc1nc(N)nc(Cl)c1C#N)c1nc2cccc(Cl)c2c(=O)n1-c1cc(F)cc(F)c1 [Compound 105, (S)-2-amino-4-chloro-6-((1-(5-chloro-3-(3,5-difluorophenyl)-4-oxo-3,4-dihydroquinazolin-2-yl)ethyl)amino)pyrimidine-5-carbonitrile] | 2 |
| C[C@H](Nc1nc(F)nc(N)c1C#N)c1nc2cccc(Cl)c2c(=O)n1-c1ccccc1 [Compound 106, (S)-4-amino-6-((1-(5-chloro-4-oxo-3-phenyl-3,4-dihydroquinazolin-2-yl)ethyl)amino)-2-fluoropyrimidine-5-carbonitrile] | 0.8 |
| N#Cc1c(N)nc(N)nc1N1C[C@H](NC(=O)C(F)F)C[C@H]1c1nc2cccc(F)c2c(=O)n1-c1cc(F)cc(F)c1 [Compound 111, N-((3R,5S)-1-(2,6-diamino-5-cyanopyrimidin-4-yl)-5-(3-(3,5-difluorophenyl)-5-fluoro-4-oxo-3,4-dihydroquinazolin-2-yl)pyrrolidin-3-yl)-2,2-difluoroacetamide] | 9 |
| N-((3R,5S)-5-(5-chloro-3-(3-(difluorophenyl)-5-fluorophenyl)-4-oxo-3,4-dihydroquinazolin-2-yl)-1-(2,6-diamino-5-cyanopyrimidin-4-yl)pyrrolidin-3-yl)-2,2-difluoroacetamide [Compound 110] | 2 |

The next lines start with the values.

| IC50 [nM] | Compound |
| --- | --- |
| 0.4 | N#Cc1c(N)nc(N)nc1N1C[C@H](NC(=O)C(F)F)C[C@H]1c1nc2cccc(Cl)c2c(=O)n1-c1ccccc1 [Compound 107, N-((3R,5S)-5-(5-chloro-4-oxo-3-phenyl-3,4-dihydroquinazolin-2-yl)-1-(2,6-diamino-5-cyanopyrimidin-4-yl)pyrrolidin-3-yl)-2,2-difluoroacetamide] |
| 2 | N#Cc1c(N)nc(N)nc1N1C[C@@H](NC(=O)C(F)(F)F)C[C@H]1c1nc2cccc(Cl)c2c(=O)n1-c1ccccc1 [Compound 108, N-((3S,5S)-5-(5-chloro-4-oxo-3-phenyl-3,4-dihydroquinazolin-2-yl)-1-(2,6-diamino-5-cyanopyrimidin-4-yl)pyrrolidin-3-yl)-2,2,2-trifluoroacetamide] |
| 0.7 | N#Cc1c(N)nc(N)nc1N1C[C@H](NC(=O)C(F)F)C[C@H]1c1nc2cccc(Cl)c2c(=O)n1-c1cc(F)cc(F)c1 [Compound 109, N-((3R,5S)-5-(5-chloro-3-(3,5-difluorophenyl)-4-oxo-3,4-dihydroquinazolin-2-yl)-1-(2,6-diamino-5-cyanopyrimidin-4-yl)pyrrolidin-3-yl)-2,2-difluoroacetamide] |
| 0.9 | N#Cc1c(N)nc(N)nc1N1C[C@H](NC(=O)CC2CC2)C[C@H]1c1nc2cccc(Cl)c2c(=O)n1-c1ccccc1 [Compound 114, N-((3R,5S)-5-(5-chloro-4-oxo-3-phenyl-3,4-dihydroquinazolin-2-yl)-1-(2,6-diamino-5-cyanopyrimidin-4-yl)pyrrolidin-3-yl)-2,2-cyclopropylacetamide] |
| 64 | N#Cc1c(N)nc(N)nc1N1C[C@H](NC(=O)CN)C[C@H]1c1nc2cccc(Cl)c2c(=O)n1-c1ccccc1 [Compound 115, 2-amino-N-((3R,5S)-5-(5-chloro-4-oxo-3-phenyl-3,4-dihydroquinazolin-2-yl)-1-(2,6-diamino-5-cyanopyrimidin-4-yl)pyrrolidin-3-yl)acetamide] |
| 7 | N#Cc1c(N)nc(N)nc1N1C[C@H](NC(=O)CN)C[C@H]1c1nc2cccc(Cl)c2c(=O)n1-c1cc(F)cc(F)c1 [Compound 116, 2-amino-N-((3R,5S)-5-(5-chloro-3-(3,5-difluorophenyl)-4-oxo-3,4-dihydroquinazolin-2-yl)-1-(2,6-diamino-5-cyanopyrimidin-4-yl)pyrrolidin-3-yl)acetamide] |
